The text below walks through data of ChEMBL document CHEMBL1149750, “Drimane Sesquiterpene Lactones from Peniophora polygonia” (J Nat Prod, 1992).

Molecules are shown by their SMILES. Calls of active or inactive are those of the source. The calls are words filed in the database; no cut-off is given here.

In the experiment the test system is Phellinus tremulae. In words: Antifungal activity against Phellinus tremulae. In kind it is functional, organism-based.

`CC1(C)CCC[C@]2(C)[C@H]3COC(=O)[C@@]3(O)CC[C@@H]12`: the result was Active.
